From paper PMC10544015 (Journal of Medicinal Chemistry, 2023)
Bridge positions count the residues as written; N and C are the ends. Square brackets hold non-standard residues; d marks the D form. Triazole bridges read from a SMILES are 1,4-linked. Peptide text beside a SMILES is read from it. Lys(N3) = [N-]=[N+]=NCCCC[C@H](N)C(=O)O; Pra = C#CC[C@H](N)C(=O)O; Ahx = NCCCCCC(=O)O

Tests used:
[1] = circular dichroism; conditions: PBS (10 mM phosphate, 137 mM NaCl, 2.7 mM KCl); pH 7.4; rt °C; 100 uM
[2] = target: T1, Panx1 channels (Mus musculus, UniProt Q9JIP4); assay: Yo-Pro-1 dye uptake assay in B16-BL6 cells; format: cell-based; conditions: for decrease of HOS-induced Yo-Pro-1 uptake: 100 µM, 30 min HOS
Procedure: The ability of the two previously identified lead compounds, SBL-PX1–42 and SBL-PX1-44, to affect the cellular uptake of ions and small molecules through Panx1 channels was evaluated in Yo-Pro-1 uptake assays. Yo-Pro-1 is a small fluorescent dye of 629 Da able to diffuse into cells through open Panx1 channels and emit green fluorescence when binding to nucleic acids in the cells.[66],[67] A representative example showing Yo-Pro-1 uptake over time is given in the Supporting Information (Figure S4). As expected, HOS induced a rapid Yo-Pro-1 uptake, which continued to increase gradually over time. […] While a small nonsignificant inhibition (14%) of Yo-Pro-1 uptake was observed when cells were exposed to 100 μM of ^10Panx1, the same concentration of the SBL-PX1-42 or SBL-PX1-44 analogues decreased Yo-Pro-1 uptake by 26 and 27%, respectively (Figure 3E). […] Among other possibilities, the reduced efficacy of the peptidomimetics in Yo-Pro-1 uptake assays, as compared to ATP release assays, may be attributed to the difference in size between ATP and Yo-Pro-1 or to the different repartition of charges in the two molecules.
B16-BL6 cells were plated on 96-well plates and grown until confluency. […] Cells were then incubated in the HOS solution containing the aforementioned compounds. Yo-Pro-1 (5 μM, Life Technologies) was added to the cells, and fluorescence was continuously recorded for 30 min with FDSS/μCELL Functional Drug Screening System (Hamamatsu Photonics). Yo-Pro-1 uptake in each condition was expressed as a percentage of HOS-induced Yo-Pro-1 uptake. […] Triplicates were performed for each independent experiment.

[3] = system: B16-BL6 cells; assay: LDH cytotoxicity assay in B16-BL6 cells; format: cell-based, mouse; conditions: peptides 100 to 6.25 µM, Pbn 2.5 mM, HOS solution
[4] = In vitro proteolytic stability in human plasma; format: in vitro ADME
Procedure: The proteolytic stability of the peptides was determined through in vitro stability assays in human plasma, as previously reported.[31],[89] Briefly, a stock solution of the peptide was prepared at a concentration of 1–2 mm in Milli-Q water and was used for further dilutions. Prior to the actual stability testing, the selectivity of the assay and stability of the working solutions were evaluated in parallel with an assessment of the linearity, accuracy, and precision of the method using three separately prepared calibration curves. The samples were analyzed by RP-HPLC on an Agilent 1200 series gradient HPLC system in combination with an EC HPLC column EC 150/2 NUCLEODUR (C18 HTec, 3 μm length: 150 mm, ID: 2 mm. Macherey-Nagel). The half-lives of the peptides were calculated by interpolating the data based on the obtained calibration curve. Afterward, the log concentrations as a function of time were transferred to a semi-log chart. Metabolites were identified by reanalyzing the samples using LC-MS on the same system previously described.[31]

[5] = target: T2, Panx1 channels (Homo sapiens, UniProt Q96RD7); assay: HOS-induced ATP release assay in EA.hy926 endothelial cells; format: cell-based; conditions: for inhibition at 100 µM: EA.hy 926, read-out: % ATP release inhibition at 100µM (in EA.hy926 cells)
T2 construct: host or cells: EA.hy926 human endothelial cells
Procedure: Similar to B16-BL6 cells, a 2–3-fold enhancement of ATP release from EA.hy926 cells was observed upon HOS stimulation (Figure 7E). However, the absolute levels of ATP release were lower in these endothelial cells (around 300 vs 500–600 nM in B16-BL6 cells). As expected, Pbn reduced HOS-induced ATP release from EA.hy926 cells, albeit by a lower fraction than the one observed in B16-BL6 cells (Figure 7E vs7A). The reason for this different efficacy of Pbn is unknown but may be due to its nonspecific action on other ATP release channels or transporters,[68] of which the expression naturally varies among different cell types. […] The water-soluble double-stapled ^10Panx1 peptidomimetic SBL-PX1-206 reduced HOS-induced ATP release from EA.hy926 cells by about 25% at 12.5 μM. […] Stapled and double-stapled ^10Panx1 analogues were also not cytotoxic when tested at 100 and 12.5 μM in EA.hy926 cells (Supporting Information, Figure S8).
(§1) Triplicates were performed for each independent experiment.

[6] = target: T1, Panx1 channels; assay: HOS-induced ATP release assay in B16-BL6 cells; conditions: for inhibition at 100 µM: B16-BL6, read-out: % ATP release inhibition at 100µM (in B16-BL6 cells)
[7] = Water solubility (observation); format: physicochemical
[8] = system: H9c2 cells; assay: ATP release assay in Panx1-lacking H9c2 cells (specificity); format: cell-based, rat; conditions: peptides 100 or 12.5 µM, Pbn 2.5 mM, 30 min HOS
Source text: The cardiomyoblast cell line (H9c2) was chosen to assess the specificity of the stapled ^10Panx1 analogues. Panx1 mRNA was not found in undifferentiated H9c2 cells or after differentiation into cardiomyocyte-like cells, while it was readily detected in our positive controls (kidney and liver samples; Supporting Information, Figure S5B). The absence of Panx1 protein expression was confirmed by Western blot analysis in both undifferentiated and differentiated H9c2 cells (Supporting Information, Figure S5C) as well as by immunostaining on H9c2 cells (Supporting Information, Figure S5D). […] Of note, the low concentration of ATP release in H9c2 cells compared to B16-BL6 cells (47 vs 513 nM, respectively, see dotted line in Supporting Information, Figure S5E) cannot be attributed to low cellular content of the metabolite because a high level of ATP was found in the supernatant (1170 nM) when cells were lysed with Triton X-100.
as §1

[9] = Circular dichroism spectroscopy (helicity); format: physicochemical; conditions: PBS, 20 to 90 °C
Procedure: Spectra were measured with a JASCO J-715 CD spectropolarimeter equipped with a temperature controller using a 1 mm path length quartz cuvette and a scan rate of […]. The spectra were recorded in the wavelength range of 190–260 nm with a resolution and a bandwidth of 0.5 and 1.0 nm, respectively. The sensitivity and scan rate of the spectrometer were set to 100 mdeg and 50 nm min^–1, respectively. Samples were prepared in phosphate-buffered saline (PBS, 10 mM phosphate, 137 mM sodium chloride, 2.7 mM potassium chloride, pH 7.4, at room temperature) to the final concentration of 100 μM with or without 2,2,2-trifluoroethanol (TFE). CD spectra were averaged over 3–5 scans with the baseline subtracted from analogous conditions as those for the samples and converted to the mean residue ellipticity. Helicity was calculated as previously reported (see the Supporting Information).[52]

T2 sequence (Q96RD7 whole entry): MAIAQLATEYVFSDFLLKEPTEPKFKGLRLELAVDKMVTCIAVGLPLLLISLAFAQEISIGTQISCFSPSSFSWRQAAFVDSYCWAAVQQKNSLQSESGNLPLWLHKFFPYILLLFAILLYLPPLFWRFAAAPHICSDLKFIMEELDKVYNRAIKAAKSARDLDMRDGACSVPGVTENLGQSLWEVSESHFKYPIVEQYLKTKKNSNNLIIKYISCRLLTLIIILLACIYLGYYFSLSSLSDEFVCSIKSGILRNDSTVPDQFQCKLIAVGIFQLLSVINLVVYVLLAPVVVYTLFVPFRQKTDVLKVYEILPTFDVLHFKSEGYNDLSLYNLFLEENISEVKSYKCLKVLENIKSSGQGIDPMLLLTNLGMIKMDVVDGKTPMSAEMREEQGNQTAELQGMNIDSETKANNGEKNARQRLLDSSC
T1 sequence (Q9JIP4 whole entry): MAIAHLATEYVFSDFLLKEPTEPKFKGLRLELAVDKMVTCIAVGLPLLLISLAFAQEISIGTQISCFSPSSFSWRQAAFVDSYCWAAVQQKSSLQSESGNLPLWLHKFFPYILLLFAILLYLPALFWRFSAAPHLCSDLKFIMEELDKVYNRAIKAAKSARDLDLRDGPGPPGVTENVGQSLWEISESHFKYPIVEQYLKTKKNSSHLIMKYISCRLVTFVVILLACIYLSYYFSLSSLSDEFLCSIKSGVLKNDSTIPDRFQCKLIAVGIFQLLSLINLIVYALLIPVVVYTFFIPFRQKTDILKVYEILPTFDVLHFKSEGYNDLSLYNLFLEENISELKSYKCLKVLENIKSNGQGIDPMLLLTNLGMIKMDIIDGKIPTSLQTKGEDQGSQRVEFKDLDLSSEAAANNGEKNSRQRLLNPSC

With CC(=O)N[C@H]1Cc2cn(nn2)CCCC[C@@H](C(=O)N[C@@H](C)C(=O)N[C@@H](Cc2ccccc2)C(=O)N[C@H](C(=O)N[C@@H](CC(=O)O)C(=O)N[C@@H](CO)C(=O)N[C@@H](Cc2ccc(O)cc2)C(N)=O)C(C)C)NC(=O)[C@H](CCC(N)=O)NC(=O)[C@H](CCCNC(=N)N)NC(=O)[C@H](Cc2c[nH]c3ccccc23)NC1=O [SBL-PX1-44] the helicity [1] was 41%, the “decrease of HOS-induced Yo-Pro-1 uptake” value [2] was 27% and the “cytotoxicity (extracellular LDH)” value [3] was “no cytotoxicity”. For the same compound, the “fold longer half-life in human plasma compared to ^10Panx1” value [4] was 30 fold, the “half-life t1/2 in human plasma” value ([4]; 37 °C) was 1.04 ± 0.0418 h and the inhibition at 100 µM [5] was 41%. For the same compound, the inhibition at 100 µM [6] was 33%.
In the case of CC(C)[C@@H]1NC(=O)[C@H](Cc2ccccc2)NC(=O)[C@@H](NC(=O)[C@@H]2CCCCn3cc(nn3)C[C@H](NC(=O)CCCCCNC(=O)[C@@H](N)CCCCN)C(=O)N[C@@H](Cc3c[nH]c4ccccc34)C(=O)N[C@@H](CCCNC(=N)N)C(=O)N[C@@H](CCC(N)=O)C(=O)N2)Cc2cn(nn2)CCCC[C@@H](C(=O)N[C@@H](Cc2ccc(O)cc2)C(N)=O)NC(=O)[C@H](CC(=O)O)NC1=O [SBL-PX1-206] (H-K[Ahx][Pra]WRQ[Lys(N3)][Pra]FVD[Lys(N3)]Y-NH2; triazole 3-7, 8-12 (inferred)), the helicity [1] is reported as 44%, the “only identified metabolite (lysine of solubilizing tail cleaved) present in solution” value ([4]; after 24 h, human plasma, 37 °C) is reported as “around 80%” and the “reduction of HOS-induced ATP release from EA.hy926 cells” value ([5]; 12.5 µM) is reported as “about 25%”. The inhibition at 100 µM [5] was 15% and the water solubility [7] was “water-soluble”.
For CCCN(CCC)S(=O)(=O)c1ccc(C(=O)O)cc1 [Pbn, probenecid, reference compound], the “inhibition of Yo-Pro-1 uptake” value ([2]; 2.5 mM, 30 min) was “final lower level than the basal Tyrode conditions”, the “cytotoxicity (extracellular LDH)” value [3] was “no cytotoxicity” and the “inhibition of ATP release in H9c2 cells” value [8] was “No inhibition”. For the same compound, the “reduction of HOS-induced ATP release from EA.hy926 cells” value ([5]; 2.5 mM) was “around 35%” and the “reduction of HOS-induced ATP release” value ([6]; 2.5 mM, B16-BL6 cells, 30 min HOS) was 61%.
In the case of CC(=O)N[C@@H](CO)C(=O)N[C@@H](Cc1c[nH]c2ccccc12)C(=O)N[C@@H](CCCNC(=N)N)C(=O)N[C@@H](CCC(N)=O)C(=O)N[C@@H](C)C(=O)N[C@H]1Cc2cn(nn2)CCCC[C@@H](C(=O)N[C@@H](Cc2ccc(O)cc2)C(N)=O)NC(=O)[C@H](CC(=O)O)NC(=O)[C@H](C(C)C)NC(=O)[C@H](Cc2ccccc2)NC1=O [SBL-PX1-42], the helicity [1] is reported as 56%, the “decrease of HOS-induced Yo-Pro-1 uptake” value [2] is reported as 26% and the “cytotoxicity (extracellular LDH)” value [3] is reported as “no cytotoxicity”. For the same compound, the “thermal stability of α-helical profile (CD at varying temperatures)” value [9] was “high thermal stability”, the “fold longer half-life in human plasma compared to ^10Panx1” value [4] was 30 fold and the “half-life t1/2 in human plasma” value ([4]; 37 °C) was 1.102 ± 0.00867 h. The inhibition at 100 µM [5] was 26% and the inhibition at 100 µM [6] was 39%.
